In PubChem BioAssay AID1996:
In brackets after ≈: the same amount, converted by molar mass.

settings: buffer; pH 7.4; 200.0 µM

Which solubility kinetic does the source give for `CN(CC(=O)Nc1ccc(Cl)cc1)C(=O)CCc1ccccc1` here?
Its solubility kinetic is 5.2 µg/mL (≈ 15.7 µM).

With `O=C(COc1ccc2c(c1)OCO2)Nc1cccc(F)c1` as the molecule, how does the solubility kinetic read?
The solubility kinetic was 21.5 µg/mL (≈ 74.3 µM).

For `O=C1NC(=Nc2ccc(F)cc2)SC1Cc1ccc(F)cc1` (stereo not given), which solubility kinetic is on record?
Its solubility kinetic is 1 µg/mL (≈ 3.14 µM).

Which solubility kinetic does the source give for `CCn1c(=O)c2c(nc3n2CCCN3Cc2ccccc2)n(C)c1=O` here?
The solubility kinetic was 13.7 µg/mL (≈ 40.4 µM).

For `CN1CC(C#N)C2(O)c3ccccc3CCC2C1` (stereo not given), which solubility kinetic is on record?
Its solubility kinetic is greater than 36.3 µg/mL.

With `O=C(CSc1nc(C2CC2)nc2ccccc12)Nc1ccccc1` as the molecule, how does the solubility kinetic read?
The solubility kinetic was less than 0.2 µg/mL.

Which solubility kinetic does the source give for `COc1ccccc1CCNC(=O)c1csc2c1CCCC2` here?
Its solubility kinetic is 1 µg/mL (≈ 3.17 µM).

With `O=C(COC(=O)c1cc(=O)[nH]c2ccccc12)Nc1ccc(F)cc1` as the molecule, how does the solubility kinetic read?
Its solubility kinetic is 15.4 µg/mL (≈ 45.3 µM).

With `CC1CC(C)(C)NC(=S)N1CCCC(=O)Nc1ccc(Cl)cc1` (stereo not given) as the molecule, how does the solubility kinetic read?
The solubility kinetic was 36.7 µg/mL (≈ 104 µM).

Which solubility kinetic does the source give for `O=C(CCCc1ccccc1)Nc1ccccc1[N+](=O)[O-]` here?
Its solubility kinetic is 15.2 µg/mL (≈ 53.5 µM).

For `Cc1cc(OCC(=O)N(C)Cc2ccccc2)ccc1Br`, which solubility kinetic is on record?
The solubility kinetic was 22.7 µg/mL (≈ 65.2 µM).

For `O=C1c2ccccc2C(=O)c2[nH]c(=O)[nH]c21`, which solubility kinetic is on record?
The solubility kinetic was greater than 32.1 µg/mL.

With `NS(=O)(=O)c1ccc(N2CCOCC2)c(C(=O)NCc2cccs2)c1` as the molecule, how does the solubility kinetic read?
The solubility kinetic was greater than 57.2 µg/mL.

With `O=C(OCc1csc(-c2ccccc2)n1)c1ccc(O)cc1` as the molecule, how does the solubility kinetic read?
Its solubility kinetic is less than 0.7 µg/mL.

With `CC1(C(=O)OCC(=O)Nc2ccc(Cl)cn2)CC1(Cl)Cl` (stereo not given) as the molecule, how does the solubility kinetic read?
The solubility kinetic was greater than 50.6 µg/mL.

With `CCOC(=O)C1(CC2CC2)CCN(C(=O)c2cccnc2C)CC1` as the molecule, how does the solubility kinetic read?
The solubility kinetic was greater than 49.6 µg/mL.

Which solubility kinetic does the source give for `Nc1ccc(S(=O)(=O)Nc2ccc(C(=O)c3ccccc3)cc2)cc1` here?
The solubility kinetic was 9.4 µg/mL (≈ 26.7 µM).

For `O=C(CN1C(=O)NC2(CCCCCCC2)C1=O)Nc1c(Cl)cccc1Cl`, which solubility kinetic is on record?
Its solubility kinetic is 7.4 µg/mL (≈ 18.6 µM).

With `COc1ccc(Cc2c(O)nc(SCC(C)C)[nH]c2=O)cc1` as the molecule, how does the solubility kinetic read?
The solubility kinetic was 47.2 µg/mL (≈ 147 µM).

Which solubility kinetic does the source give for `COc1ccc(CC(=O)O/N=C(\N)c2ccccc2)cc1OC` here?
Its solubility kinetic is 37.5 µg/mL (≈ 119 µM).

With `CN1CCC(N(C)C(=O)c2ccc(Cl)c(S(=O)(=O)N3CCc4ccccc43)c2)CC1` as the molecule, how does the solubility kinetic read?
The solubility kinetic was greater than 67.2 µg/mL.

Which solubility kinetic does the source give for `Cc1cccc(C(=O)Nc2cccc3cccnc23)c1` here?
The solubility kinetic was 2.6 µg/mL (≈ 9.91 µM).

For `O=C(CN1C(=O)CSc2ncccc21)Nc1ccccc1F`, which solubility kinetic is on record?
The solubility kinetic was greater than 47.6 µg/mL.

For `CCOc1ccc(NC(=O)c2cccc(NC(=O)c3ccccc3)c2)cc1`, which solubility kinetic is on record?
Its solubility kinetic is 0.8 µg/mL (≈ 2.22 µM).

For `C=CCOc1c(CNc2ccc3[nH]c(=O)[nH]c3c2)cccc1OC`, which solubility kinetic is on record?
Its solubility kinetic is greater than 48.8 µg/mL.

Which solubility kinetic does the source give for `Cc1cc(C)nc(Nc2cccc(Cl)c2)n1.Cl` here?
The solubility kinetic was 5.9 µg/mL.

With `CCOc1cc(OCC)cc(C(=O)NCCCN2CCOCC2)c1` as the molecule, how does the solubility kinetic read?
The solubility kinetic was 48.4 µg/mL (≈ 144 µM).

With `N#C/C(=C\c1cc(Br)ccc1F)C(=O)NC1CC1` as the molecule, how does the solubility kinetic read?
Its solubility kinetic is 13.1 µg/mL (≈ 42.4 µM).

Which solubility kinetic does the source give for `Cc1ccc(S(=O)(=O)/N=C2\C=C(Nc3ccc(O)cc3)C(=O)c3ccccc32)cc1` here?
Its solubility kinetic is 0.9 µg/mL (≈ 2.15 µM).

Which solubility kinetic does the source give for `Cc1nc2nc(SCc3nc4ccccc4[nH]3)[nH]c2cc1Br` here?
Its solubility kinetic is 1.1 µg/mL (≈ 2.94 µM).

With `CC(=O)c1c(-c2ccccc2)c2cc(Cl)ccc2n(C)c1=O` as the molecule, how does the solubility kinetic read?
Its solubility kinetic is 38.8 µg/mL (≈ 124 µM).

For `CC(=O)c1ccc(S(=O)(=O)N2CCN(CC#N)CC2)cc1`, which solubility kinetic is on record?
The solubility kinetic was 45.8 µg/mL (≈ 149 µM).

For `Cc1c(Cl)cccc1NC(=S)N1CCCCCC1`, which solubility kinetic is on record?
Its solubility kinetic is 29.3 µg/mL (≈ 104 µM).

With `[Cl-].c1ccc(Cn2c[n+](Cc3ccccc3)c3ccccc32)cc1` as the molecule, how does the solubility kinetic read?
Its solubility kinetic is 42.9 µg/mL.

Which solubility kinetic does the source give for `COc1ccc(OC)c(-n2c(C)cc(C=O)c2C)c1` here?
The solubility kinetic was greater than 38.9 µg/mL.

For `O=C(COC(=O)Cc1ccccc1F)NCCc1ccccc1`, which solubility kinetic is on record?
Its solubility kinetic is greater than 47.3 µg/mL.

With `CC(C)(O)C#Cc1ccc(C(=O)NC2CCCCC2)s1` as the molecule, how does the solubility kinetic read?
Its solubility kinetic is greater than 43.7 µg/mL.

With `Cc1ccc(Cc2c(C)c(C#N)c3[nH]c4ccccc4n3c2=O)cc1` as the molecule, how does the solubility kinetic read?
Its solubility kinetic is less than 0.2 µg/mL.

For `Brc1cc(-c2ccccc2)nc(-c2ccccc2)n1`, which solubility kinetic is on record?
The solubility kinetic was less than 0.3 µg/mL.

With `COc1ccccc1-n1cc(-c2ccc(C)cc2)[nH]c1=S` as the molecule, how does the solubility kinetic read?
Its solubility kinetic is 1 µg/mL (≈ 3.37 µM).

With `O=C(CSc1ncccn1)NCc1cccc(Cl)c1` as the molecule, how does the solubility kinetic read?
Its solubility kinetic is greater than 44.1 µg/mL.

With `CSc1ccc(C2CC(=O)Nc3c2c(=O)n(C)c(=O)n3C)cc1` (stereo not given) as the molecule, how does the solubility kinetic read?
The solubility kinetic was greater than 49.7 µg/mL.

Which solubility kinetic does the source give for `Cc1ccc(C(=O)NCC(=O)N2CCN(c3ccccc3)CC2)cc1` here?
The solubility kinetic was 4.4 µg/mL (≈ 13 µM).

With `CNC(=S)NC1CC2CCCC(C1)N2Cc1ccc(C)cc1` (stereo not given) as the molecule, how does the solubility kinetic read?
Its solubility kinetic is 45.9 µg/mL (≈ 145 µM).

Which solubility kinetic does the source give for `COC(=O)c1cc(Nc2cc(C)c3ccc(O)cc3n2)cc(C(=O)OC)c1` here?
The solubility kinetic was less than 0.4 µg/mL.

For `COc1cccc(CN(C)S(=O)(=O)c2cccs2)c1`, which solubility kinetic is on record?
Its solubility kinetic is 25.1 µg/mL (≈ 84.4 µM).

With `CS(=O)(=O)N1CCN(c2ccc([N+](=O)[O-])cc2C(F)(F)F)CC1` as the molecule, how does the solubility kinetic read?
Its solubility kinetic is 39.9 µg/mL (≈ 113 µM).

With `CCN(CC)c1ccc(Nc2nc(Cl)ncc2Br)cc1` as the molecule, how does the solubility kinetic read?
Its solubility kinetic is 12.8 µg/mL (≈ 36 µM).

For `CC(C)N(CCc1ccncc1)C(=S)Nc1cccc(Cl)c1`, which solubility kinetic is on record?
The solubility kinetic was 43.2 µg/mL (≈ 129 µM).

For `COc1cccc(-c2nc3ccc([N+](=O)[O-])cc3o2)c1`, which solubility kinetic is on record?
Its solubility kinetic is less than 0.3 µg/mL.

Which solubility kinetic does the source give for `Cc1cc(NC(=O)Cc2ccc(Br)cc2)no1` here?
The solubility kinetic was 1.8 µg/mL (≈ 6.1 µM).

Which solubility kinetic does the source give for `Cc1oc(S(=O)(=O)N2CCCCC2)cc1NC(=O)Nc1ccc(F)cc1` here?
The solubility kinetic was 5.5 µg/mL (≈ 14.4 µM).

For `Cn1c(CN2CCN(S(C)(=O)=O)CC2)nc2cc([N+](=O)[O-])ccc21`, which solubility kinetic is on record?
The solubility kinetic was greater than 53 µg/mL.

For `OC1(C(F)(F)F)CC(c2ccc3ccccc3c2)=NO1` (stereo not given), which solubility kinetic is on record?
The solubility kinetic was greater than 42.2 µg/mL.

For `Cc1ccc(C(=O)OCC(=O)N2CCCC2)cc1`, which solubility kinetic is on record?
The solubility kinetic was 32.7 µg/mL (≈ 132 µM).

Which solubility kinetic does the source give for `COc1ccc(Cc2nc3ccccc3n2C)cc1.Cl` here?
The solubility kinetic was 42.3 µg/mL.

For `CCN1C(=O)CC(c2cccnc2)=Nc2ccccc21`, which solubility kinetic is on record?
Its solubility kinetic is greater than 39.8 µg/mL.

Which solubility kinetic does the source give for `CN(C)C/C=C/C(O)(c1ccccc1)c1ccccc1` here?
Its solubility kinetic is greater than 40.1 µg/mL.

Which solubility kinetic does the source give for `CC(C)(C)C(=O)C1=C(O)C(=O)N(Cc2ccccc2)C1c1ccccc1Cl` (stereo not given) here?
Its solubility kinetic is greater than 57.6 µg/mL.

Which solubility kinetic does the source give for `CSc1ccc(CN2CCC(Cc3ccccc3)CC2)cc1` here?
The solubility kinetic was 17.7 µg/mL (≈ 56.8 µM).
